In US10300155B2, “Alpha-synuclein ligands” (Washington University, priority 2015, dated 2019):
Several values for one entry are separate records, joined by “and”; a condition that tells them apart may be missing. Identical values can stand only once. Like-named read-outs stand apart in the source and are kept apart here.

Experiments:
tau fibrils = tau fibrils (Homo sapiens, UniProt P10636); assay: ThT competitive assay for tau fibrils (Table 3); format: binding; set-up: made in house; host or cells: E. coli; conditions: for EC50: tau fibrils
Method: Tau fibril recombinant protein was produced in E. coli. Additional preparation was performed in a similar fashion to Example 115.

α-synuclein fibrils [1] = biological target: T1, α-synuclein fibrils (Homo sapiens, UniProt P37840); assay: Thioflavin T competition assay (Example 130, Table 9), α-synuclein fibrils; format: binding
T1 construct: made in house; host or cells: E. coli BL21(DE3)RIL
Method: (§1) Freshly transformed BL21 colonies were inoculated into 2 L baffled flasks containing 250 ml sterilized TB (1.2% bactotryptone, 2.4% yeast extract, 0.4% glycerol, 0.17 M KH2PO4, 0.72 M K2HPO4) with 50 μg/ml ampicillin, and incubated overnight at 37° C. with shaking.
Competition assays used a fixed concentration of α-syn, Aβ, or tau fibrils (1 μM), consisting of 3 μM, 50 nM and 4 μM of ThioflavinT respectively. […] To optimize the determination of selectivity, assays for all three fibril species were set up in parallel using a common set of intermediate compound dilutions for each analog. Reactions were incubated at room temperature for 1.5 h before quantifying bound ligand as described above for the saturation binding assay. […] All data points were performed in triplicate. Nonspecific fluorescence was measured in parallel reactions containing ThioT plus each concentration of competitor but no fibrils, and these measurements were subtracted from the reactions with fibrils to yield fibril-specific fluorescence. Data were analyzed using Graphpad. Prism software (version 4.0) to obtain EC50 values by fitting the data to the equation Y=bottom+(top-bottom)/(1+10^(x−log EC50)).

α-synuclein fibrils [2] = biological target: T1, α-synuclein fibrils; assay: ThT competitive assay for α-synuclein fibrils (Table 1); format: binding; conditions: for EC50: α-synuclein fibrils
Method: Upon binding to amyloid fibrils, a peak at approximately 440 nm becomes dominant with the fluorescent emission maximum shifted to 480 nm. This is accompanied by a strong enhancement of the fluorescence.
as §1, with “α-Synuclein recombinant protein was produced in E. coli. […] Freshly” for “Freshly”, “250 mL” for “250 ml”
To determine the concentration of fibrils, the reaction mixture (100 μL) was centrifuged at 18,000×g for 10 minutes to separate fibrils from monomer. The α-synuclein monomer and other soluble proteins in the supernatant were removed, and the fibril pellet was resuspended in 100 μL solution of Tris-HCl (20 mM) and NaCl (100 mM). This fibril suspension was used in a bicinchoninic acid (BCA) protein assay along with a bovine serum albumin (BSA) standard curve to determine the concentration of fibrils in the 72 hour fibril reaction mixture.
To prepare the fibrils for performing binding assays, the fibril reaction mixture prepared above was centrifuged at 18,000×g for 10 minutes.
Once the ThT-α-synuclein saturation binding curve and dissociation constant (Kd) were determined the competitive assay for determining the binding affinity of various test compounds was conducted. […] The mixture was incubated at room temperature for 60 minutes on the shaking plate. The fluorescent intensity for each cell was measured by the fluorescence reader at λex and λem. The Ki value for each compound was calculated by the corresponding inhibition curve.
The Ki values were derived from the EC50 values using the Cheng-Prusoff equation: Ki=EC50/(1+[radioligand]/Kd). See FIGS. 17.1-31.2 for the inhibition curves for each compound in the ThioT competitive binding assay.

Aβ fibrils = Aβ fibrils (Homo sapiens, UniProt P05067); assay: ThT competitive assay for Aβ fibrils (Table 2); format: binding; set-up: made in house; host or cells: E. coli; conditions: for EC50: Aβ fibrils
Method: […] recombinant protein was produced in E. coli. Additional preparation was performed in a similar fashion to Example 115. […] The inhibitor that binds with highest affinity to Aβ fibrils has the lowest dissociation constant (Ki).

AD Tissue = assay: Radioligand saturation binding, AD postmortem brain tissue; set-up: species or system human; conditions: brain tissue homogenate
α-synuclein fibrils [3] = biological target: T1, α-synuclein fibrils; assay: Radioligand binding assay with α-synuclein fibrils (Table 8)
[4] = average, read-out: Ki (nM) Tau (avg)
[5] = individual determinations, read-out: Ki (nM) Tau
[6] = average, read-out: EC50m (nM) EC50 (avg)
[7] = individual determinations, read-out: EC50m (nM) EC50
[8] = average, read-out: α-synuclein EC50 (avg)
[9] = average, read-out: α-synuclein Ki (avg)
[10] = average, read-out: Ki (nM) α-syn (avg)
[11] = average, read-out: EC50 (nM) EC50 (avg)
[12] = individual determinations, read-out: α-synuclein EC50
[13] = individual determinations, read-out: α-synuclein Ki
[14] = individual determinations, read-out: Ki (nM) α-syn
[15] = individual determinations, read-out: EC50 (nM) EC50
[16] = average, read-out: EC50(nM) EC50 (avg)
[17] = individual determinations, read-out: EC50(nM) EC50
[18] = average, read-out: Ki (nM) Aβ (avg)
[19] = individual determinations, read-out: Ki (nM) Aβ

Chain of tau fibrils (P10636 560-692 limits assumed): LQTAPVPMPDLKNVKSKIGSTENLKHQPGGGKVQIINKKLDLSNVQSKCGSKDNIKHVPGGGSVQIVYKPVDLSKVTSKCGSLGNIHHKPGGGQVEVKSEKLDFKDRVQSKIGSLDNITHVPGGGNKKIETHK
Chain of Aβ fibrils (P05067 672-713 limits assumed): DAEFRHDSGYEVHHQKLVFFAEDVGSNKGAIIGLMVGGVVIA

SMILES	Ki (tau fibrils; [4]) [nM]	Ki (tau fibrils; [5])	EC50 (tau fibrils; [6]) [nM]	EC50 (tau fibrils; [7])	EC50 (α-synuclein fibrils [1]; [8]) [µM]	Ki (α-synuclein fibrils [1]; [9]) [µM]	Ki (α-synuclein fibrils [2]; [10]) [nM]	EC50 (α-synuclein fibrils [2]; [11]) [nM]	EC50 (α-synuclein fibrils [1]; [12])	Ki (α-synuclein fibrils [1]; [13])	Ki (α-synuclein fibrils [2]; [14])	EC50 (α-synuclein fibrils [2]; [15])	EC50 (Aβ fibrils; [16]) [nM]	EC50 (Aβ fibrils; [17]) [nM]	Ki (Aβ fibrils; [18]) [nM]	Ki (Aβ fibrils; [19]) [nM]	Kd (AD Tissue) [µM]	Kd (α-synuclein fibrils [3]) [µM]
COc1cc(/C=C/c2ccc3cc(O)ccc3n2)ccn1 [TZ-36-146]	113	124 nM and 102 nM	278	305 nM and 251 nM	0.332	0.127	127	332	–	–	–	–	–	–	–	–	–	–
COc1ccc2nc(/C=C/c3ccnc(Br)c3)ccc2c1 [TZ-36-36]	–	–	–	–	0.396	0.152	152	396	0.335 µM and 0.457 µM	0.128 µM and 0.175 µM	128 nM and 175 nM	335 nM and 457 nM	–	–	–	–	–	–
COc1ccc(/C=C/c2ccsc2)cc1 [TZ-34-28]	876	600 nM and 1150 nM	2150	1470 nM and 2830 nM	–	–	172	449	–	–	43.1 nM and 167 nM and 113 nM and 104 nM and 256 nM and 347 nM	113 nM and 437 nM and 297 nM and 271 nM and 670 nM and 907 nM	–	–	–	–	–	–
COc1ccc(/C=C/c2ccc(-c3cnc(C)s3)s2)cc1 [TZ-34-43]	512	512 nM	1260	1260 nM	–	–	134	351	–	–	–	–	854	854	320	320	–	–
COc1ccc2nc(/C=C/c3ccnc(OC)c3)ccc2c1 [TZ-36-28-2T]	34	–	82	82 nM	–	–	51.8	136	–	–	37 nM and 40 nM and 87 nM and 66 nM and 29 nM	98 nM and 105 nM and 226 nM and 174 nM and 76 nM	715	715	268	268	0.013	0.03
COc1ccc2nc(/C=C/c3ccoc3)ccc2c1 [TZ-36-54]	–	–	–	–	0.178	0.0685	68.5	178	0.169 µM and 0.188 µM	0.065 µM and 0.072 µM	65 nM and 72 nM	169 nM and 188 nM	–	–	–	–	–	–
